Experimental data as given in US9469598B2, “Erythropoietin production-promoting agent” (SBI Pharmaceuticals Co., Ltd., priority 2011, dated 2016).
Structures can show the parent of a compound that is named as a salt.

System: HEP3B cells
Test: Erythropoietin production by HEP3B cells with reduced erythropoietin production ability (ELISA of culture supernatant)
Type: cell-based, human
Details: 1% oxygen, 24 h
Excerpt: Erythropoietin production ability of erythropoietin producer cells were reduced by culturing the erythropoietin producer cells under hypoxic condition to allow artificial production of erythropoietin, and then adding inflammatory cytokine or uremia toxin.
TNF-α was employed as the inflammatory cytokine. In addition, indoxyl sulfate was employed as the uremic toxin. Indoxyl sulfate is thought to be the causative substance of uremic toxin, and is also the most commonly used uremia-related marker. Indoxyl sulfate in vivo is also a substance where tryptophan-derived indoles are sulfated and synthesized in the liver. Accordingly, a state of reduced erythropoietin production by addition of inflammatory cytokine or uremic toxin is a state of mimicked renal anemia.
In this Example, HEP3B cells which are liver cancer cells that produce erythropoietin of Groups I to VI with different culture conditions (from ATCC) were used. First, as a culturing step common to all 6 groups, about 300,000 HEP3B cells per well of a 12-well plate were cultured. The culture condition employed was culturing in RPMI1640 medium supplemented with 10% FCS/PC-SM at 37° C. under 20% oxygen condition. After 24 hours of culture, they were divided into the following culture conditions I to VI, and further cultured for 24 hours. Human recombinant TNF-a (rhTNF-a; Roche) was employed as TNF-α in the following.
After culturing for 24 hours under the above culture conditions I to VI, the culture supernatant was separated, and the concentration of erythropoietin contained in the culture supernatant was measured with “Human Erythropoietin ELISA kit” (from Bender MedSystems).

For `Cl.NCC(=O)CCC(=O)O` [aminolevulinic acid hydrochloride, 5-aminolevulinic acid hydrochloride], the “erythropoietin concentration in culture supernatant, Group (VI) vs Group (V)” value (1 mM indoxyl sulfate, 0.3 μM 5-aminolevulinic acid hydrochloride with 0.15 μM sodium ferrous citrate) was “significantly high erythropoietin concentration value compared to Group (V)” and the “erythropoietin concentration in culture supernatant, Group (IV) vs Group (III)” value (220 U/ml TNF-α, 0.3 μM 5-aminolevulinic acid hydrochloride with 0.15 μM sodium ferrous citrate) was “significantly high erythropoietin concentration value compared to Group (III)”.
`O=S(=O)(O)Oc1c[nH]c2ccccc12` [indoxyl sulfate] was tested, and the “erythropoietin concentration in culture supernatant, Group (V) vs Group (I)” value (1 mM indoxyl sulfate) was “decrease in the concentration of erythropoietin was observed”.
TNF-α was tested, and the “erythropoietin concentration in culture supernatant, Group (III) vs Group (I)” value (220 U/ml TNF-α) was “decrease in the concentration of erythropoietin was observed”.
